Experiments:
[1] = target: T1, calpain-I isolated from human erythrocytes (Homo sapiens, UniProt P07384); experiment: Calpain I enzyme inhibition in vitro (kinetic fluorescence assay); format: biochemical; details: apparent Ki from IC50 (Cheng-Prussoff); 20 nM calpain-I, 100 μM Suc-Leu-Tyr-AMC, pH 7.3, room temperature
T1 construct: calpain-I—isolated from human erythrocytes; purchased Calbiochem 208713; host or cells: human erythrocytes (tissue-derived)
T1 sequence (P07384 1-714): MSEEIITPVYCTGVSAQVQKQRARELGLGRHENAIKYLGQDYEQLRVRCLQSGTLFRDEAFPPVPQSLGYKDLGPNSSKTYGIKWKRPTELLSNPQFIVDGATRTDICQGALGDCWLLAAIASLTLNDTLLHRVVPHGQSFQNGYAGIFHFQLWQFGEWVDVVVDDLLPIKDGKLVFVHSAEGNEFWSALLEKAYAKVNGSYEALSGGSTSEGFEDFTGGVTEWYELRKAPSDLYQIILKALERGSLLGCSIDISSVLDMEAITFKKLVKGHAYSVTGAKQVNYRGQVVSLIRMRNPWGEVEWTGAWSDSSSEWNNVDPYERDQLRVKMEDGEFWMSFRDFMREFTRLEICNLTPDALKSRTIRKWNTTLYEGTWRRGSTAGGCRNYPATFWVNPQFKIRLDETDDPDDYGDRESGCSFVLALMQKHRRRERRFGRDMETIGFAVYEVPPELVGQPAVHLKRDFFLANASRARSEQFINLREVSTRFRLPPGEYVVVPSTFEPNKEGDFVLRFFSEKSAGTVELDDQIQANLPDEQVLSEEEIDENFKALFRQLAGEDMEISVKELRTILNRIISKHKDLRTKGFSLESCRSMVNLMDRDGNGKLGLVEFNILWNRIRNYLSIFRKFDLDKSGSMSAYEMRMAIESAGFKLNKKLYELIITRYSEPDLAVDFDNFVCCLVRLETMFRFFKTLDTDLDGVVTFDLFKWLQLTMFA
T1 sequence (P04632 1-268 partner): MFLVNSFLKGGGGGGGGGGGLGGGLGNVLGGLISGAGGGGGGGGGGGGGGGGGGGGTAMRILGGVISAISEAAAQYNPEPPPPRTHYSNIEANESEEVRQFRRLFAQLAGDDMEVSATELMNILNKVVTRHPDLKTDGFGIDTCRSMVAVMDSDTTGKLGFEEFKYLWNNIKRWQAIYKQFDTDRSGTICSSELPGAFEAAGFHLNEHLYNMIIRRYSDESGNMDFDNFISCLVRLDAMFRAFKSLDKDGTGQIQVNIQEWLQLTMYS
Method in brief: (§1)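 Kinetic AMC fluorescence (ex 390/em 460 nm), room temperature. Calpain-I 20 nM, 100 μM Suc-Leu-Tyr-AMC, imidazole/CaCl2 pH 7.3; cathepsins B 0.25 nM/100 μM Z-Phe-Arg-AMC, K 3 nM/10 μM Z-Gly-Pro-Arg-AMC, S 0.5 nM/20 μM Z-Val-Val-Arg-AMC, each MES/EDTA/cysteine pH 6.0. Ki from IC50 via Cheng-Prusoff, averaging 2–4 curves.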

[2] = target: T2, cathepsin B isolated from human liver (Homo sapiens, UniProt P07858); experiment: Cathepsin B enzyme inhibition in vitro (kinetic fluorescence assay); format: biochemical; details: Ki(cathepsin B)/Ki(calpain) ratio
T2 construct: cathepsin B—isolated from human liver; purchased Calbiochem 219362; host or cells: human liver (tissue-derived)
Method in brief: as §1

[3] = target: T3, cathepsin K activated from recombinant human procathepsin K (Homo sapiens, UniProt P43235); experiment: Cathepsin K enzyme inhibition in vitro (kinetic fluorescence assay); format: biochemical; details: Ki(cathepsin K)/Ki(calpain) ratio
T3 construct: purchased Calbiochem 342001; host or cells: E. coli
T3 sequence (P43235 115-329): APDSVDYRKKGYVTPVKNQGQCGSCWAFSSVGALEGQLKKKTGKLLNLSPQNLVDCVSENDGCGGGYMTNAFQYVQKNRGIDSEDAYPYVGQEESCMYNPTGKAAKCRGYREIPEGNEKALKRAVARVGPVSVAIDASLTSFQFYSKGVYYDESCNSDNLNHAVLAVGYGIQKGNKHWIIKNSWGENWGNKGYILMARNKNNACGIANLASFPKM
Method in brief: as §1

[4] = target: T4, cathepsin L isolated from human liver (Homo sapiens, UniProt P07711); experiment: Cathepsin L enzyme inhibition in vitro (kinetic fluorescence assay); format: biochemical; details: Ki(cathepsin L)/Ki(calpain) ratio
T4 construct: cathepsin L—isolated from human liver; purchased Calbiochem 219402; host or cells: human liver (tissue-derived)
T4 sequence (P07711 114-333): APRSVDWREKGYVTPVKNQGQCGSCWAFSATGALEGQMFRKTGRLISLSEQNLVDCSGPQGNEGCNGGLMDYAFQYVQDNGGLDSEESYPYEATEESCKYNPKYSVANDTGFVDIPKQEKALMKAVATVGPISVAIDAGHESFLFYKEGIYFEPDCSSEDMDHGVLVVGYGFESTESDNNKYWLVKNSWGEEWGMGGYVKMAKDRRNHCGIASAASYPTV
Method in brief: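 Inhibition of cathepsin L isolated from human liver was measured by kinetic fluorescence (excitation 390 nm, emission 460 nm) using 1 nM enzyme and 2 μM Z-Phe-Arg-AMC substrate (Km 2 μM) in 50 mM MES, 2 mM EDTA, 0.05% Brij 35, 2.5 mM L-cysteine, pH 6.0, at room temperature. Apparent Ki values came from IC50 values via the Cheng-Prussoff relation, averaged over 2 to 4 dose-effect plots.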

[5] = target: T5, recombinant human cathepsin S (Homo sapiens, UniProt P25774); experiment: Cathepsin S enzyme inhibition in vitro (kinetic fluorescence assay); format: biochemical; details: Ki(cathepsin S)/Ki(calpain) ratio
T5 construct: purchased Calbiochem 219343; host or cells: E. coli
T5 sequence (P25774 115-331): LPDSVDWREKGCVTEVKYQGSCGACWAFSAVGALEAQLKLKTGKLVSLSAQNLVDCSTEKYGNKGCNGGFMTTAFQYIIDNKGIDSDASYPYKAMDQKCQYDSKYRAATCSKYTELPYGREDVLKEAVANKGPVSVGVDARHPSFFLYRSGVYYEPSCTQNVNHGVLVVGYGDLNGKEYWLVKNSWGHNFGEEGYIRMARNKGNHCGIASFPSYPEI
Method in brief: as §1

[6] = Assay for determining cytosolic clearance, human liver cytosol; format: in vitro ADME; details: 0.5 μM compound, 1 mg/ml human liver cytosol, 37° C., pH 7.5
Procedure: (§2) For comparison purposes data measured with human liver cytosol were contrasted with those obtained with cynomolgus monkey liver cytosol.
(§3) 0.5 μM of a compound to be tested was incubated with 1 mg/ml of human liver cytosol as well as monkey liver cytosol at 37° C. in 0.5 M of phosphate buffer at pH 7.5 while shaking (commercial sources: female cynomolgus liver cytosol from Tebu bio, human liver cytosol from BDgentest).
(§4) In each case aliquots of 65 μl were taken after 0, 5, 10 and 15 min and transferred into wells of a wellplate which were immediately filled with 130 μl of ethanol to stop the reaction. The samples were kept frozen until analysis on a LC/MS/MS system (Applied Biosystems SCIEX 4000).
(§5) Read out parameters were the loss of parent compounds, from which the half life periods (T1/2) were calculated from.
(§6) To assess the stability of the compounds tested the clearance ranges were adjusted to the hepatic plasma flow of the different species according to the following scheme:
(§7) stable=from 0 to about ⅓ of the hepatic plasma flow;
(§8) moderately stable=from about ⅓ to about ⅔ of the hepatic plasma flow;
(§9) instable=more than ⅔ of the hepatic plasma flow.
(§10) Based on this adjustment the following qualifiers were assigned to evaluate the cytosolic stabilities of the compounds tested: […]

[7] = Assay for determining cytosolic clearance, cynomolgus monkey liver cytosol; format: in vitro ADME; details: 0.5 μM compound, 1 mg/ml cynomolgus monkey liver cytosol, 37° C., pH 7.5
Procedure: as §2, §3, §4, §5, §6, §7, §8, §9, §10

| Ki [1] | Sel cat. S [5] | human cytCL [6] | cyno cytCL [7] | Compound | Sel cat. B [2] | Sel cat. K [3] | Sel cat. L [4] |
| --- | --- | --- | --- | --- | --- | --- | --- |
| 100 to 600 nM | ++ (30<Ki(cathepsin B)/Ki(calpain)≦100) | ++ (0-14 μl/min/mg) | ++ (0-18 μl/min/mg) | CNC(=O)C(=O)C(Cc1ccccc1)NC(=O)[C@H]1CCC(=O)N1Cc1ccccc1 (mixture of isomers) [Example 25, (2R)-1-Benzyl-N-(4-(methylamino)-3,4-dioxo-1-phenylbutan-2-yl)-5-oxopyrrolidine-2-carboxamide] | +++ (Ki(cathepsin B)/Ki(calpain) ratio of >30) | +++ (Ki(cathepsin K)/Ki(calpain) ratio of >30) | +++ (Ki(cathepsin L)/Ki(calpain) ratio of >30) |
| 100 to 600 nM | ++ (30<Ki(cathepsin B)/Ki(calpain)≦100) | ++ (0-14 μl/min/mg) | ++ (0-18 μl/min/mg) | O=C(NC1CC1)C(=O)C(Cc1ccccc1)NC(=O)[C@H]1CCC(=O)N1Cc1ccccc1 (mixture of isomers) [Example 27, (2R)-1-Benzyl-N-(4-(cyclopropylamino)-3,4-dioxo-1-phenylbutan-2-yl)-5-oxopyrrolidine-2-carboxamide] | +++ (Ki(cathepsin B)/Ki(calpain) ratio of >30) | +++ (Ki(cathepsin K)/Ki(calpain) ratio of >30) | +++ (Ki(cathepsin L)/Ki(calpain) ratio of >30) |
| 100 to 600 nM | ++ (30<Ki(cathepsin B)/Ki(calpain)≦100) | ++ (0-14 μl/min/mg) | ++ (0-18 μl/min/mg) | CC(C)CNC(=O)C(=O)C(Cc1ccccc1)NC(=O)[C@H]1CCC(=O)N1Cc1ccccc1 (mixture of isomers) [Example 28, (2R)-1-Benzyl-N-(4-(isobutylamino)-3,4-dioxo-1-phenylbutan-2-yl)-5-oxopyrrolidine-2-carboxamide] | +++ (Ki(cathepsin B)/Ki(calpain) ratio of >30) | +++ (Ki(cathepsin K)/Ki(calpain) ratio of >30) | +++ (Ki(cathepsin L)/Ki(calpain) ratio of >30) |
| 100 to 600 nM | + (10<Ki(cathepsin S)/Ki(calpain)≦30) | ++ (0-14 μl/min/mg) | ++ (0-18 μl/min/mg) | CCNC(=O)C(=O)C(Cc1ccccc1)NC(=O)[C@H]1CCC(=O)N1Cc1ccccc1C(F)(F)F (mixture of isomers) [Example 37, (2R)—N-(4-(Ethylamino)-3,4-dioxo-1-phenylbutan-2-yl)-5-oxo-1-(2-(trifluoromethyl)-benzyl)pyrrolidine-2-carboxamide] | ++ (10<Ki(cathepsin B)/Ki(calpain)≦30) | ++ (10<Ki(cathepsin B)/Ki(calpain)≦30) | +++ (Ki(cathepsin L)/Ki(calpain) ratio of >30) |
|  |  | ++ (0-14 μl/min/mg) | ++ (0-18 μl/min/mg) | CCNC(=O)C(=O)C(Cc1ccccc1)NC(=O)[C@H]1CCC(=O)N1Cc1c(OC)cccc1C(F)(F)F (mixture of isomers) [Example 42, (2R)—N-(4-(Ethylamino)-3,4-dioxo-1-phenylbutan-2-yl)-1-(2-methoxy-6-(trifluoromethyl)benzyl)-5-oxopyrrolidine-2-carboxamide] | ++ (10<Ki(cathepsin B)/Ki(calpain)≦30) | ++ (10<Ki(cathepsin B)/Ki(calpain)≦30) | ++ (10<Ki(cathepsin B)/Ki(calpain)≦30) |
| 100 to 600 nM | ++ (30<Ki(cathepsin B)/Ki(calpain)≦100) | ++ (0-14 μl/min/mg) | ++ (0-18 μl/min/mg) | COc1cccc(C(F)(F)F)c1CN1C(=O)CC[C@@H]1C(=O)NC(Cc1ccccc1)C(=O)C(=O)NCc1ccccn1 (mixture of isomers) [Example 43, (2R)—N-(3,4-Dioxo-1-phenyl-4-(pyridin-2-ylmethylamino)butan-2-yl)-1-(2-methoxy-6-(trifluoromethyl)benzyl)-5-oxopyrrolidine-2-carboxamide] | +++ (Ki(cathepsin B)/Ki(calpain) ratio of >30) | +++ (Ki(cathepsin K)/Ki(calpain) ratio of >30) | +++ (Ki(cathepsin L)/Ki(calpain) ratio of >30) |

| Compound | Ki [1] | Sel cat. S [5] | human cytCL [6] | cyno cytCL [7] | Sel cat. B [2] | Sel cat. K [3] | Sel cat. L [4] |
| --- | --- | --- | --- | --- | --- | --- | --- |
| O=C(NC1CC1)C(=O)C(Cc1ccccc1)NC(=O)[C@H]1CCC(=O)N1Cc1ccccc1C(F)(F)F (mixture of isomers) [Example 36, (2R)—N-(4-(Cyclopropylamino)-3,4-dioxo-1-phenylbutan-2-yl)-5-oxo-1-(2-(trifluoromethyl)benzyl)pyrrolidine-2-carboxamide] | 50 to 100 nM | +++ (Ki(cathepsin S)/Ki(calpain) ratio of >100) | ++ (0-14 μl/min/mg) | ++ (0-18 μl/min/mg) | ++ (10<Ki(cathepsin B)/Ki(calpain)≦30) | +++ (Ki(cathepsin K)/Ki(calpain) ratio of >30) | +++ (Ki(cathepsin L)/Ki(calpain) ratio of >30) |
| O=C(NCc1ccc(C(F)(F)F)cc1)C(=O)C(Cc1ccccc1)NC(=O)[C@H]1CCC(=O)N1Cc1ccccc1 (mixture of isomers) [Example 68, (2R)-1-Benzyl-N-(3,4-dioxo-1-phenyl-4-(4-(trifluoromethyl)benzylamino)butan-2-yl)-5-oxopyrrolidine-2-carboxamide] | 100 to 600 nM | +++ (Ki(cathepsin S)/Ki(calpain) ratio of >100) |  | ++ (0-18 μl/min/mg) | +++ (Ki(cathepsin B)/Ki(calpain) ratio of >30) | +++ (Ki(cathepsin K)/Ki(calpain) ratio of >30) | ++ (10<Ki(cathepsin B)/Ki(calpain)≦30) |
| O=C(NCc1ccccn1)C(=O)C(Cc1ccccc1)NC(=O)[C@H]1CCC(=O)N1Cc1ccccc1 (stereo partly drawn) [Example 20, (2R)-1-Benzyl-N-{3,4-dioxo-1-phenyl-4-[(pyridin-2-ylmethyl)amino]butan-2-yl}-5-oxopyrrolidine-2-carboxamide] | 50 to 100 nM | +++ (Ki(cathepsin S)/Ki(calpain) ratio of >100) | ++ (0-14 μl/min/mg) | ++ (0-18 μl/min/mg) | +++ (Ki(cathepsin B)/Ki(calpain) ratio of >30) | +++ (Ki(cathepsin K)/Ki(calpain) ratio of >30) | ++ (10<Ki(cathepsin B)/Ki(calpain)≦30) |

Source: patent publication US9018206B2, “Carboxamide compounds and their use as calpain inhibitors” (AbbVie Deutschland GmbH & Co. KG, priority 2009, dated 2015)
